Data as given in ChEMBL document CHEMBL1649332, “Update on fusidic acid (CEM-102) tested against Neisseria gonorrhoeae and Chlamydia trachomatis” (Antimicrob Agents Chemother, 2010).
≈ marks a conversion by molar mass, not a printed value. Calls of active or inactive are those of the source. The rule behind the calls is not given here.

Assays:
Chlamydia trachomatis = test: Antimicrobial activity against Chlamydia trachomatis isolates; assay type: functional; settings: for MBC / MIC90: Chlamydia trachomatis
Neisseria gonorrhoeae [1] = test: Antimicrobial activity against Neisseria gonorrhoeae isolates by CLSI agar dilution method; assay type: functional
Neisseria gonorrhoeae [2] = test: Antimicrobial activity against Neisseria gonorrhoeae assessed as susceptible isolates by EUCAST method; assay type: functional
Neisseria gonorrhoeae [3] = test: Antimicrobial activity against Neisseria gonorrhoeae assessed as resistant isolates by EUCAST method; assay type: functional
Neisseria gonorrhoeae [4] = test: Antimicrobial activity against Neisseria gonorrhoeae assessed as susceptible isolates by CLSI method; assay type: functional
Plasma = test: Trough plasma concentration in human; assay type: ADME, cell-free
Neisseria gonorrhoeae [5] = test: Antimicrobial activity against Neisseria gonorrhoeae isolates up to 2 ug/ml by CLSI agar dilution method; assay type: functional, organism-based
Neisseria gonorrhoeae [6] = test: Antimicrobial activity against Neisseria gonorrhoeae assessed as resistant isolates by CLSI method; assay type: functional

CC[C@H]1OC(=O)[C@H](C)[C@@H](O[C@H]2C[C@@](C)(OC)[C@@H](O)[C@H](C)O2)[C@H](C)[C@@H](O[C@@H]2O[C@H](C)C[C@H](N(C)C)[C@H]2O)[C@](C)(O)C[C@@H](C)CN(C)[C@H](C)[C@@H](O)[C@]1(C)O [AZITHROMYCIN]
MBC90 (Chlamydia trachomatis): 0.12 µg/mL (≈ 0.16 µM) | MBC (Chlamydia trachomatis): 0.015 µg/mL (≈ 0.02 µM) | MIC90 (Chlamydia trachomatis): 0.12 µg/mL (≈ 0.16 µM) | MIC50 (Neisseria gonorrhoeae [1]): 0.25 µg/mL (≈ 0.334 µM) | Activity (Neisseria gonorrhoeae [2]): 80% | Activity (Neisseria gonorrhoeae [3]): 5.7%

CO/N=C(\C(=O)N[C@@H]1C(=O)N2C(C(=O)O)=C(CSc3nc(=O)c(O)nn3C)CS[C@H]12)c1csc(N)n1 [CEFTRIAXONE]
Activity (Neisseria gonorrhoeae [4]): 100% | Activity (Neisseria gonorrhoeae [2]): 100% | Activity (Neisseria gonorrhoeae [3]): 0%

CC[C@H]1OC(=O)[C@H](C)[C@@H](O[C@H]2C[C@@](C)(OC)[C@@H](O)[C@H](C)O2)[C@H](C)[C@@H](O[C@@H]2O[C@H](C)C[C@H](N(C)C)[C@H]2O)[C@](C)(OC)C[C@@H](C)C(=O)[C@H](C)[C@@H](O)[C@]1(C)O [CLARITHROMYCIN]
MBC90 (Chlamydia trachomatis): 0.06 µg/mL (≈ 0.0802 µM) | MBC (Chlamydia trachomatis): 0.015 µg/mL (≈ 0.0201 µM) | MIC90 (Chlamydia trachomatis): 0.06 µg/mL (≈ 0.0802 µM)

C[C@H]1c2cccc(O)c2C(=O)C2=C(O)[C@]3(O)C(=O)C(C(N)=O)=C(O)[C@@H](N(C)C)[C@@H]3[C@@H](O)[C@@H]21.O [DOXYCYCLINE]
MBC90 (Chlamydia trachomatis): 0.06 µg/mL | MBC (Chlamydia trachomatis): 0.015 µg/mL | MIC90 (Chlamydia trachomatis): 0.06 µg/mL

CC(=O)O[C@H]1C[C@@]2(C)[C@@H](C[C@@H](O)[C@H]3[C@@]4(C)CC[C@@H](O)[C@@H](C)[C@@H]4CC[C@@]32C)/C1=C(\CCC=C(C)C)C(=O)O [FUSIDIC ACID]
Cmin (Plasma): 80 µg/mL | MBC90 (Chlamydia trachomatis): 0.5 µg/mL (≈ 0.968 µM) | MBC (Chlamydia trachomatis): 0.12 µg/mL (≈ 0.232 µM) | MIC90 (Chlamydia trachomatis): 0.5 µg/mL (≈ 0.968 µM) | MIC50 (Neisseria gonorrhoeae [1]): 0.5 µg/mL (≈ 0.968 µM) | MIC90 (Neisseria gonorrhoeae [1]): 1 µg/mL (≈ 1.94 µM) | Activity (Neisseria gonorrhoeae [5]): Active

CC1(C)S[C@@H]2[C@H](NC(=O)Cc3ccccc3)C(=O)N2[C@H]1C(=O)O [PENICILLIN G]
Activity (Neisseria gonorrhoeae [6]): 45.7% | Activity (Neisseria gonorrhoeae [4]): 22.9% | MIC50 (Neisseria gonorrhoeae [1]): 1 µg/mL (≈ 2.99 µM) | Activity (Neisseria gonorrhoeae [2]): 22.9% | Activity (Neisseria gonorrhoeae [3]): 45.7%

CC[C@H]1OC(=O)[C@H](C)C(=O)[C@H](C)[C@@H](O[C@@H]2O[C@H](C)C[C@H](N(C)C)[C@H]2O)[C@](C)(OC)C[C@@H](C)C(=O)[C@H](C)[C@H]2N(CCCCn3cnc(-c4cccnc4)c3)C(=O)O[C@]12C [TELITHROMYCIN]
MBC90 (Chlamydia trachomatis): 0.06 µg/mL (≈ 0.0739 µM) | MBC (Chlamydia trachomatis): 0.015 µg/mL (≈ 0.0185 µM) | MIC90 (Chlamydia trachomatis): 0.06 µg/mL (≈ 0.0739 µM)

CN(C)[C@@H]1C(O)=C(C(N)=O)C(=O)[C@@]2(O)C(O)=C3C(=O)c4c(O)cccc4[C@@](C)(O)[C@H]3C[C@@H]12 [TETRACYCLINE]
Activity (Neisseria gonorrhoeae [6]): 34.3% | Activity (Neisseria gonorrhoeae [4]): 22.9% | MIC50 (Neisseria gonorrhoeae [1]): 1 µg/mL (≈ 2.25 µM) | Activity (Neisseria gonorrhoeae [2]): 45.7% | Activity (Neisseria gonorrhoeae [3]): 34.3%
